According to PMC3376645 (Chemical Communications (Cambridge, England), 2012):
Blank lines part the entries; values can stand above or below the compound they belong to.

Tests used:
[1] = Gelation screening in buffer by heat/cool method; type: physicochemical; details: buffer 100 mM PBS, 10% DMSO, pH = 7.2
[2] = tested on: thrombin; assay: LC-MS analysis of aliquots to determine conversion; type: biochemical; details: 1 mM PMSF
[3] = approximate; stated without experiment or reference; cited from earlier work

- critical gel concentration (cgc) [1]: 54 mM
Compound: PABA-F5Phe-NH2 [Compound 1]

Compound: O=S(=O)(F)Cc1ccccc1 [PMSF]
- effect of thrombin inhibitor on enzymatic cleavage of compound 4 [2]: decrease in the rate of enzymatic cleavage

Compound: Nc1ccc(C(=O)O)cc1 [PABA, p-aminobenzoic acid]
- pKa [3]: ~5
